We go through five molecules from US20240174691A1, “PYRIMIDINE-FUSED CYCLIC COMPOUND, PREPARATION METHOD THEREFOR AND USE THEREOF” (GENFLEET THERAPEUTICS (SHANGHAI) INC., priority 2021, published 2024).

Holding throughout (type): cell-based, human
For assay [1], the system named is p-ERK in AGS cells containing the KRAS G12D mutation. Description: Cell p-ERK assay (HTRF, Advance ERK phospho-T202/Y204 kit). Particulars: 3 hours incubation with compound. How it is done:
AGS was purchased from ATCC; catalog No: CRL-1739; F12K was purchased from Gibco; catalog No: 21127-022; FBS was purchased from Gibco; catalog No: 10099-141C; trypsin (containing EDTA) was purchased from Gibco; catalog No: 25200-072; DMSO was purchased from VWRAMMESCO; catalog No: 0231-500ML; 96-well cell culture plates were purchased from Corning; catalog No: 3599; opaque 96-well plates with a white background were purchased from Cisbio; catalog No: 66PL96025; Advance ERK phospho-T202/Y204 kit was purchased from Cisbio; catalog No: 64AERPEH; cell counters were purchased from CHEMOMETEC; model No: NC-200; microplate reader was purchased from PerkinElmer; model No: Envison.
AGS is an endogenous human gastric adenocarcinoma cell line containing the KRAS^G12D mutation, cultured in F12K+10% FBS medium. On the first day of the experiment, cells in the logarithmic growth phase were taken, digested with trypsin (containing EDTA), collected, and counted. Approximately 20000 cells/well were seeded in a 96-well cell culture plate and cultured overnight in an incubator with 5% CO2. 1000× stock solutions of compounds at a 3.16-fold concentration gradient were prepared using DMSO, and diluted 200-fold into a 5× compound stock solution using the medium described above. The 5× compound stock solution was added to each cell culturing well the day after cell seeding at a final concentration of 1× and a DMSO content of 0.1%. DMSO was used as an experimental control. After the compound was added and the incubation was kept for 3 hours, the medium in the culture wells was removed. 50 μl of Cell lysis solution (from Advance ERK phospho-T202/Y204 kit, the same below) was added to each well, mixed well, and incubated for 30 minutes and then 16 μl of the mixed solution was transferred to an opaque 96-well plate with a white background. In addition, 16 μl of cell lysis solution was added to a well as a blank well. After transferring, 4 μl of p-ERK HTRF antibody mixture (from Advance ERK phospho-T202/Y204 kit) was added to each well. After incubation for 4 hours, HTRF fluorescence value (RLU) was read by a microplate reader, and p-ERK level inhibition rate (IR (%)=(RLU control−RLU compound)/(RLU control−RLU blank)×100%) of the compounds was calculated. The concentration of the compounds and corresponding cell p-ERK level inhibition rate were fitted using Prism 8 four-parameters method, and the IC50 value was calculated.

The next assay has as its system AsPC-1 cells (KRAS G12D). Description: Cell proliferation inhibition assay, 3D cell model (CellTiter-Glo 3D), AsPC-1. Particulars: AsPC-1 3D sphere plate, 5 days incubation. From the text: (§1) AsPC-1 was purchased from ATCC; catalog No: CRL-1682; AGS was purchased from ATCC; catalog No: CRL-1739; RPMI1640 was purchased from Gibco; catalog No: 11875-093 2235123; F12K was purchased from Gibco; catalog No: 21127-022; FBS was purchased from Gibco; catalog No: 10099-141C; trypsin (containing EDTA) was purchased from Gibco; catalog No: 25200-072; CellTiter Glo-3D was purchased from Progema; catalog No: G9683; 384-well sphere plates were purchased from Corning; catalog No: 3830; opaque 384-well plates with a white background were purchased from Corning; catalog No: 3570; cell counters were purchased from CHEMOMETEC; model: NC-200; microplate reader was purchased from PerkinElmer; model: Envison;
(§2) AsPC-1 is an endogenous human pancreatic cancer cell containing KRAS^G12D mutation, cultured in RPMI-1640 medium containing 10% FBS; AGS is a human gastric cancer cell line containing KRAS^G12D, cultured in F-12K medium containing 10% FBS. Cells in the logarithmic growth phase were taken, digested with trypsin (containing EDTA), collected, and counted. 800 AsPC-1 cells/well or 400 AGS cells/well, respectively, were seeded in a 384-well sphere plate and cultured overnight at 5% CO2 to establish a 3D cell model. 1000× stock solutions of compounds at a 3.16-fold concentration gradient of were prepared using DMSO, diluted 100-fold into a 10× compound stock solution using the medium described above. The 10× compound stock solution was added to each cell on 2nd day after cell seeding at a final concentration of 1× and a DMSO content of 0.1%. DMSO was used as an experimental control, and the medium was used as blank. After the addition of the compounds, the cells were incubated for 5 days. 30 μl of CellTiter-Glo work solution was added to each well, mixed well, and incubated for 30 minutes. After standing at room temperature for 30 minutes, 40 μl of the mixed solution was transferred to an opaque 384-well plate with a white clear bottom. Luminescence chemiluminescence value was read by a microplate reader, and the cell proliferation inhibition rate (IR (%)=(RLU control−RLU compound)/(RLU control−RLU blank)×100%) was calculated. The gradiently diluted concentration of the compounds and corresponding cell proliferation inhibition rate were fitted using XLFit four-parameters method, and the IC50 value was calculated.
A general note: In ATP-based viability assays light output follows the ATP content of the culture.

For a further assay, the system named is AGS cells (KRAS G12D). Briefly: Cell proliferation inhibition assay, 3D cell model (CellTiter-Glo 3D), AGS. Particulars: AGS 3D sphere plate, 5 days incubation.
Description: as §1, §2

Consider `CCc1cccc2cc(O)cc(-c3cc4nc(OC[C@@]56CCCN5C[C@H](F)C6)nc5c4c(n3)OC[C@@H]3[C@@H]4CC[C@H](CN53)N4)c12` [Z2, 5-ethyl-4-((5aS,6S,9R)-12-(((2R,7aS)-2-fluorotetrahydro-1H-pyrrolizin-7a(5H)-yl)methoxy)-5a,6,7,8,9,10-hexahydro-5H-4-oxa-3,10a,11,13,14-pentaaza-6,9-methanonaphtho[1,8-ab]hepten-2-yl)naphthalen-2-ol], for which the IC50 (as a rule, the midpoint of a concentration-inhibition curve) stood at 10.7 nM in assay [1] (Homo sapiens); 127 nM with AsPC-1 cells (KRAS G12D) (Homo sapiens, ASPC1, 120 h); 10.3 nM in the assay on AGS cells (KRAS G12D) (Homo sapiens, 120 h).

For the molecule `C#Cc1c(F)ccc2cc(O)cc(-c3nc4c5c(nc(OC[C@@]67CCCN6C[C@H](F)C7)nc5c3F)N3C[C@H]5CC[C@H](N5)[C@H]3CO4)c12` [Z131-1], the half-maximal inhibitory concentration (IC50) in assay [1] (Homo sapiens) amounted to 1.58 nM; in the assay with AsPC-1 cells (KRAS G12D) (Homo sapiens, ASPC1, 120 h), 32.8 nM; with AGS cells (KRAS G12D) (Homo sapiens, 120 h), 2.53 nM.

Turning to `CCc1cccc2cc(O)cc(-c3nc4c5c(nc(OC[C@@]67CCCN6C[C@H](F)C7)nc5c3F)N3C[C@H]5CC[C@H](N5)[C@H]3CO4)c12` [Z140-1, 5-ethyl-4-((5aS,6S,9R)-1-fluoro-12-(((2R,7aS)-2-fluorotetrahydro-1H-pyrrolizin-7a(5H)-yl)methoxy)-5a,6,7,8,9,10-hexahydro-5H-4-oxa-3,10a,11,13,14-pentaaza-6,9-methanonaphtho[1,8-ab]hepten-2-yl)naphthalen-2-ol], the figures for the half-inhibitory concentration (IC50) (in assay [1]; in the assay on AsPC-1 cells (KRAS G12D); with AGS cells (KRAS G12D)) were 2.85 nM, 21.1 nM and 4 nM, respectively.

Regarding `C#Cc1cccc2cccc(-c3nc4c5c(nc(OC[C@@]67CCCN6C[C@H](F)C7)nc5c3F)N3C[C@H]5CC[C@H](N5)[C@H]3CO4)c12` [Z350, (5aS,6S,9R)-2-(8-ethynaphthalen-1-yl)-1-fluoro-12-(((2R,7aS)-2-fluorotetrahydro-1H-pyrrolizin-7a(5H)-yl)methoxy)-5a,6,7,8,9,10-hexahydro-5H-4-oxo-3,10a,11,13,14-pentaaza-6,9-methanonaphtho[1,8-ab]heptene], the 50% inhibitory concentration (IC50) amounted to 47 nM in assay [1] (Homo sapiens); 203 nM with AsPC-1 cells (KRAS G12D) (Homo sapiens, ASPC1, 120 h); 181 nM in the assay with AGS cells (KRAS G12D) (Homo sapiens, 120 h).

Regarding `CCc1cccc2cc(O)cc(-c3cc4nc(OC[C@@]56CCCN5C[C@H](F)C6)nc5c4c(c3Cl)OC[C@@H]3[C@@H]4CC[C@H](CN53)N4)c12` [Z381, 4-((5aS,6S,9R)-3-chloro-13-((2R,7aS)-2-fluorotetrahydro-1H-pyrrolizin-7a(5H)-ylmethoxy)-5a,6,7,8,9,10-hexahydro-5H-6,9-epiminoazepino[2′,1′:3,4][1, 4]oxazepino[5,6,7-de]quinazolin-2-yl)-5-ethylnaphthalen-2-ol], the half-maximal inhibitory concentration (IC50) in assay [1] (Homo sapiens) is 436 nM.
